Values quoted from earlier work, collected in patent US20230035389A1, “ANTIVIRAL COMPOSITION BASED ON EXTRACTS OF […] […] USEFUL FOR TREATING LESIONS CAUSED BY […] VIRUS” (PONTIFICIA UNIVERSIDAD CATOLICA DE CHILE, priority 2019, published 2023).

Test system: herpes simplex virus
Settings: topical, background statement

## Nc1nc2c(ncn2COCCO)c(=O)[nH]1 [Acyclovir]
  Reduction of the duration of herpetic lesions: 1.0 days
